Laboratory results: patent publication US20220273752A1, “MODULATION OF DENDRITIC CELL FUNCTION BY THE PHOSPHOLIPID MESSENGER LPA” (Cornell University, priority 2019, published 2022)

Tests used:
[1] = test system: PERK in human monocyte-derived DCs; assay: RT-qPCR gene expression in human monocyte-derived DCs treated with LPA and TM, with or without PERK inhibitor; type: cell-based; details: LPA 100 μM and TM 1 μg/ml, 6 hours; RT-qPCR relative to ACTB
Protocol: Monocyte-derived DCs were generated from peripheral human blood and cells were treated for 6 hours with LPA (100 μM), TM (1 μg/ml) or the combination of both, in the presence or absence of the PERK inhibitor AMG PERK 44. Gene expression was subsequently determined by RT-qPCR relative to endogenous ACTB in each sample. FIG. 6A graphically illustrates expression of the PERK-dependent ER stress response gene DDIT3 in monocyte-derived DCs with or without treatment by AMG PERK 44. FIG. 6B graphically illustrates expression of IL6 in monocyte-derived DCs with or without treatment by AMG PERK 44. FIG. 6C graphically illustrates expression of IL1B in monocyte-derived DCs with or without treatment by AMG PERK 44. FIG. 6D graphically illustrates expression of PTGS2 in monocyte-derived DCs with or without treatment by AMG PERK 44. FIG. 6E graphically illustrates expression of VEGFA in monocyte-derived DCs with or without treatment by AMG PERK 44.
(§1) The structure of AMG PERK 44 is shown below as a HCl salt.

[2] = test system: PERK in murine DCs; assay: PERK inhibitor in murine DCs in vitro (data not shown); type: cell-based
From the text: as §1

[3] = test system: tumor-associated dendritic cells (tDCs); assay: Ex vivo treatment of ovarian cancer ascites, gene expression in tumor-associated DCs; type: cell-based, mouse; details: ascites incubated ex vivo with 200 nM or 1000 nM, DCs isolated 24 h later; relative to Actb
From the text: FIG. 7A-7B illustrate that conditional PERK deletion in CD11c^+ immune cells (Perk^f/f Cd11c-Cre) delays metastatic ovarian cancer progression. FIG. 7A illustrates survival of female mice of the indicated genotypes (n=8/group) that were intraperitoneally challenged with parental ID8 ovarian cancer cells and host survival was monitored over time. *P<0.05. ****P<0.0001. n=8/group. FIG. 7B graphically illustrates survival of female mice of the indicated genotypes (n=8/group) that were intraperitoneally challenged with variant ovarian cancer cells that are highly aggressive and overexpress VEGFA and Defb29 (ID8-Defb29/Vegf-A). Host survival was monitored over time. *P<0.05. ****P<0.0001. n=8/group. FIG. 8A-8D graphically illustrate expression of LPA/ER stress-induced tumorigenic and immunomodulatory genes by tumor-associated dendritic cells (tDCs) present in ovarian cancer ascites can be diminished using a small-molecule inhibitor targeting autotaxin.

[4] = test system: ovarian cancer cells that overexpress VEGFA and Defb29 (ID8-Defb29/Vegf-A); assay: Anti-tumor efficacy (host survival) in mice bearing ID8-Defb29/Vegf-A ovarian cancer; type: in vivo, mouse; details: mice bearing metastatic ovarian cancer
From the text: FIG. 9A is a schematic diagram illustrating the treatment of female mice that were intraperitoneally injected with ID8 ovarian cancer cells overexpressing VEGFA and Def29b. FIG. 9B graphically illustrates host survival as monitored over time of the mice treated as described for FIG. 9A. ***P<0.001. ****P<0.0001.
FIG. 20A schematically illustrates the experimental scheme and treatment regimen employed.
FIG. 20B graphically illustrates the percent survival for the groups described in FIG. 20A. […] FIG. 20C graphically illustrates ascites accumulation over time of the groups of animals treated as described in FIG. 20A. **P<0.001, ***P<0.001. ****P<0.0001.
Consequently, production of this bioactive lipid mediator limits the effects of immunotherapies such as Poly-(I:C) treatment, and of novel chemotherapeutic interventions such as PARP inhibitors. Targeting the autotaxin-LPA pathway may therefore be beneficial to control ovarian cancer progression and unleash protective anti-tumor immune responses that extend host survival. […] Therefore, our findings indicate that autotaxin inhibitors could be repurposed to maximize the efficacy of PARP inhibitors and awaken protective type-I IFN responses in ovarian cancer patients.
Methods similar to those described above were used to evaluate the anti-tumor effects of various autotaxin and LPA receptor inhibitors. The inhibitors were administered to mice that had received ovarian cancer cells that overexpress VEGFA and Defb29 (ID8-Defb29/Vegf-A).

[5] = test system: ID8-based ovarian cancer cells (Enpp2 sgRNA or control sgRNA); assay: Host survival of mice bearing autotaxin-deficient (Enpp2 sgRNA) or control sgRNA ID8-based ovarian cancer; type: in vivo, mouse; details: for host survival in mice bearing autotaxin-deficient ovarian cancer: Enpp2 sgRNA tumors, compared with all other experimental groups
From the text: FIG. 17A-17C illustrate host survival and disease progression in mice bearing autotaxin-deficient ovarian cancer (Enpp2 sgRNA) and treated with the TLR3 agonist Poly(1:C). FIG. 17A schematically illustrates the experimental scheme and treatment regimen. FIG. 17B graphically illustrates the survival of the indicated groups when treated as described in FIG. 17A. […] FIG. 17C graphically illustrates ascites accumulation over time of the groups of animals treated as described in FIG. 17A. ****P<0.0001.
FIG. 18A-18C illustrate that blockade of the type-I IFN receptor 1 (IFNAR1) abrogates the therapeutic effects Poly-(I:C) in mice bearing autotaxin-deficient ovarian tumors. FIG. 18A schematically illustrates the experimental scheme and treatment regimen employed. FIG. 18B graphically illustrates the percent survival for the groups described in FIG. 18A. […] FIG. 18C graphically illustrates ascites accumulation over time of the groups of animals treated as described in FIG. 18A. ***P<0.0005, ****P<0.0001.
FIG. 19A-19C illustrate the effects of the PARP inhibitor Talazoparib in mice bearing autotaxin-deficient ovarian cancer cells. FIG. 19A schematically illustrates the experimental scheme and treatment regimen employed. FIG. 19B graphically illustrates the percent survival for the groups described in FIG. 19A. […] FIG. 19C graphically illustrates ascites accumulation over time of the groups of animals treated as described in FIG. 19A. **P<0.001, ***P<0.0005, ****P<0.0001.
To define the in vivo relevance of the findings related to type-I IFN expression, the inventors abrogated the gene encoding the LPA-generating enzyme autotaxin (Enpp2) in ID8-based ovarian cancer cells lines using CRISPR-Cas9.
Based on these key findings, experiments were then performed to determine whether treatment with the TLR3 agonist Poly(I:C), which can enhance type-I IFN immune responses, could increase survival in mice bearing autotaxin-deficient ovarian tumors.
To determine whether these effects are really mediated by enhanced type-I IFN signaling, mice were treated with anti-IFNAR1 blocking antibodies. […]

Cc1ccc2cc(-c3c(C)ccc(C(=O)c4c(-c5ccccc5)n(C)n(-c5ccccc5)c4=O)c3N)ccc2n1 [AMG PERK 44]
induction of pro-tumoral factors (IL6, IL1B, PTGS2, VEGFA) in LPA-exposed human DCs undergoing ER stress [1]: prevents induction of pro-tumoral factors | effect compared with PERK deletion in murine DCs [2]: recapitulate the effects of PERK deletion

CCc1nc2c(C)cc(N3CCN(CC(=O)N4CC(O)C4)CC3)cn2c1N(C)c1nc(-c2ccc(F)cc2)c(C#N)s1 [GLPG1690]
expression of LPA/ER stress-induced Il1b, Il6, Ptgs2 and Vegf-α in tumor-associated DCs [3]: decreased the expression | host survival, single treatment ([4]; single agent): modestly extended host survival | host survival, combined with Talazoparib ([4]; with PARP inhibitor Talazoparib (FIG. 20)): significantly improved the therapeutic effects of Talazoparib | host survival, combined with chemotherapy ([4]; with chemotherapy (FIG. 9)): significantly enhanced the effects of chemotherapy

Cn1ncnc1[C@H]1c2n[nH]c(=O)c3cc(F)cc(c23)N[C@@H]1c1ccc(F)cc1 [Talazoparib]
host survival in mice bearing autotaxin-deficient ovarian cancer [5]: significant increase in host survival

Poly(I:C)
host survival in mice bearing autotaxin-deficient ovarian cancer [5]: remarkable increase in survival | host survival, treatment alone ([5]; mice bearing control sgRNA ovarian cancer): extended host survival
